The subject of one assay is Influenza A virus. In words: Antiviral activity against Influenza A virus infected in HEK293T-GlUC cells assessed as inhibition of viral replication at 10 uM preincubated with cells for 2 hrs followed by viral infection and measured after 24 hrs relative to control. The class given is functional. To be noted: HEK-293T, time 26 hrs.
The test system of another assay is PANC-1. The experiment in a line: Cytotoxicity against human PANC-1 cells assessed as reduction in cell growth measured after 72 hrs by MTT assay. The note with it: PANC-1, 72 h. The assay is classed as functional, cell-based. (In general: Formazan colour is commonly taken as a measure of viable cells.)
A further assay concerns BGC-823. In words: Cytotoxicity against human BGC-823 cells assessed as reduction in cell growth measured after 72 hrs by MTT assay. The assay is classed as functional, cell-based. To be noted: BGC-823, 72 h.
The subject of the next assay is PC-9. In words: Cytotoxicity against human PC-9 cells assessed as reduction in cell growth measured after 72 hrs by MTT assay. The assay is classed as functional, cell-based. To be noted: PC-9, 72 h.
Assay [1] concerns HepG2. The experiment in a line: Cytotoxicity against human HepG2 cells assessed as reduction in cell growth measured after 72 hrs by MTT assay. The class given is functional, cell-based. To be noted: HepG2, 72 h.
For the next assay, the system named is HCT-116. The experiment in a line: Cytotoxicity against human HCT-116 cells assessed as reduction in cell growth measured after 72 hrs by MTT assay. The class given is functional, cell-based. The note with it: HCT-116, 72 h.
In the next assay the test system is RAW264.7. The experiment in a line: Antiinflammatory activity in LPS-induced mouse RAW264.7 cells assessed as inhibition of TNF-alpha production at 10 uM incubated for 1 hr followed by LPS-stimulation and measured after 24 hrs by ELISA analysis relative to control. To be noted: time 25 hrs. The assay is classed as functional. For orientation: In an ELISA, binding on a coated surface is turned into a signal by an enzyme label.

Assay [2] concerns HepG2. In words: Hepatoprotective activity against APAP-induced cell injury in human HepG2 cells assessed as cell survival rate at 10 uM incubated for 24 hrs by MTT assay relative to control. The class given is functional.

Where only a bound is given, the exact number is not on record here.

13 molecules from ChEMBL document CHEMBL5370561, “Characterization of a Malabaricane-Type Triterpene Synthase from Astragalus membranaceus and Enzymatic Synthesis of Astramalabaricosides” (J Nat Prod, 2023) can be followed below.

With `C=C(CC/C=C(\C)CCC=C(C)C)[C@H]1CC[C@H]2[C@@]1(C)CC[C@H]1C(C)(C)[C@@H](O)CC[C@]21C`, the inhibition (as a rule, the share of the control response that was lost under treatment) at 10 µM in the assay with Influenza A virus stood at 45%; in the assay with RAW264.7 it was 40%. For the same molecule, the 50% inhibitory concentration (IC50) with PANC-1, in the assay with BGC-823, with PC-9, in the assay on HepG2 [1] and in the assay on HCT-116 was greater than 50 µM in each case.
On to `CC(C)=CCC/C(C)=C/CCC(C)(O)[C@H]1CC[C@H]2[C@@]1(C)CC[C@H]1C(C)(C)[C@@H](O)CC[C@]21C` (some centres undefined), for which the inhibition at 10 µM in the assay with Influenza A virus worked out at 71%; with RAW264.7, 34%. The IC50 (commonly the concentration that gives 50% inhibition) was 15 µM in the assay with PANC-1; 40 µM in the assay with BGC-823; 14 µM in the assay with PC-9; 22 µM with HepG2 [1]; 17 µM with HCT-116. Further, the Activity in the assay with HepG2 [2] is recorded as 47%.
For the molecule `CC(C)=CCC/C(C)=C/CC[C@@](C)(O)[C@@H]1CC[C@H]2[C@@]1(C)CC[C@H]1C(C)(C)[C@@H](O[C@@H]3O[C@H](CO)[C@@H](O)[C@H](O)[C@H]3O[C@@H]3O[C@H](CO)[C@@H](O)[C@H](O)[C@H]3O)CC[C@]21C`, the inhibition at 10 µM in the assay on Influenza A virus was 65%; in the assay with RAW264.7, 30%. Moreover, the IC50 is 45 µM in the assay with PANC-1; 26 µM in the assay with BGC-823; 36 µM with PC-9; greater than 50 µM in the assay with HepG2 [1]; 39 µM in the assay with HCT-116. In addition, in the assay on HepG2 [2], the Activity was 48%.
Take `CC(C)=CCC[C@@](C)(O)[C@H]1CC[C@]2(C)[C@@H]1CC[C@@H]1[C@@]3(C)CC[C@H](O)C(C)(C)[C@@H]3CC[C@]12C`: the inhibition at 10 µM was 57% in the assay on Influenza A virus and 43% in the assay with RAW264.7. Further, the concentration for half-maximal inhibition (IC50) in the assay on PANC-1 was 33 µM; in the assay on BGC-823 it was 40 µM; in the assay with PC-9, 49 µM; in the assay with HepG2 [1], 37 µM; in the assay with HCT-116, 40 µM. Further, the Activity in the assay on HepG2 [2] is on record as 51%.
Regarding `CC(C)=CCC/C(C)=C/CC[C@@](C)(O)[C@@H]1CC[C@H]2[C@@]1(C)CC[C@H]1C(C)(C)[C@@H](O[C@@H]3O[C@H](CO)[C@@H](O)[C@H](O)[C@H]3O)CC[C@]21C`, the results for the inhibition at 10 µM with Influenza A virus and with RAW264.7 were 47% and 39%, respectively. The IC50 in the assay with PANC-1 is 22 µM; in the assay with BGC-823, greater than 50 µM; with PC-9, 49 µM; in the assay with HepG2 [1], greater than 50 µM; in the assay with HCT-116, 28 µM. Also, the Activity with HepG2 [2] was determined as 55%.
As for `CC(C)=CCC/C(C)=C/CC[C@@](C)(O)[C@@H]1CC[C@H]2[C@@]1(C)CC[C@H]1C(C)(C)[C@@H](O)CC[C@]21C`, the inhibition at 10 µM is 76% in the assay on Influenza A virus and 42% in the assay on RAW264.7. Besides, the IC50 came out at 29 µM with PANC-1; 42 µM with BGC-823; 44 µM in the assay with PC-9; 31 µM with HepG2 [1]; 41 µM in the assay with HCT-116.
As for `CC(C)=CC/C=C(/C)[C@H]1CC[C@]2(C)[C@@H]1CC[C@@H]1[C@@]3(C)CC[C@H](O)C(C)(C)[C@@H]3CC[C@]12C`, the results for the inhibition at 10 µM with Influenza A virus and in the assay on RAW264.7 were 88% and 50%, respectively. The IC50 in the assay on PANC-1, with BGC-823, with PC-9, in the assay with HepG2 [1] and in the assay with HCT-116 was greater than 50 µM in each case. The Activity in the assay on HepG2 [2] stood at 52%.
Take `C=C(CC/C=C(\C)CCC=C(C)C)[C@@H]1CC[C@H]2[C@@]1(C)CC[C@H]1C(C)(C)[C@@H](O)CC[C@]21C`: the values for the inhibition at 10 µM in the assay on Influenza A virus and in the assay with RAW264.7 were 62% and 53%, respectively. The IC50 in the assay on PANC-1, in the assay on BGC-823, with PC-9, in the assay with HepG2 [1] and in the assay on HCT-116 was greater than 50 µM each time. For the same molecule, the Activity in the assay on HepG2 [2] came to 58%.
On to `C[C@@H]1C[C@H]2[C@@H]3CCC4=CC(=O)C=C[C@]4(C)[C@@]3(F)[C@@H](O)C[C@]2(C)[C@@]1(O)C(=O)CO` [DEXAMETHASONE], for which the inhibition at 10 µM in the assay on RAW264.7 was 55%.
For the molecule `N[C@@H](CCC(=O)N[C@@H](CS)C(=O)NCC(=O)O)C(=O)O` [GLUTATHIONE], in the assay with HepG2 [2], the Activity is 60%.
Consider `C=C(C)[C@@H]1CC[C@]2(C)CC[C@]3(C)[C@H](CC[C@@H]4[C@@]5(C)CC[C@H](O)C(C)(C)[C@@H]5CC[C@]43C)[C@@H]12` [LUPEOL], for which the figures for the inhibition at 10 µM in the assay with Influenza A virus and in the assay with RAW264.7 were 17% and 34%, respectively. In addition, the IC50 in the assay with PANC-1, in the assay with BGC-823, with PC-9, in the assay with HepG2 [1] and in the assay with HCT-116 was greater than 50 µM in each case.
Turning to `CC(=O)O[C@H]1C(=O)[C@@]2(C)[C@H]([C@H](OC(=O)c3ccccc3)[C@]3(O)C[C@H](OC(=O)[C@H](O)[C@@H](NC(=O)c4ccccc4)c4ccccc4)C(C)=C1C3(C)C)[C@]1(OC(C)=O)CO[C@@H]1C[C@@H]2O` [PACLITAXEL], the IC50 with PANC-1 came to 0.004 µM; in the assay on HepG2 [1], 0.064 µM.
As to `NC(=O)c1ncn([C@@H]2O[C@H](CO)[C@@H](O)[C@H]2O)n1` [RIBAVIRIN], in the assay with Influenza A virus, the inhibition at 10 µM stood at 97%.
